From ChEMBL document CHEMBL3351537, “Design, synthesis and biological evaluation of 4-fluoropyrrolidine-2-carbonitrile and octahydrocyclopenta[b]pyrrole-2-carbonitrile derivatives as dipeptidyl peptidase IV inhibitors” (Eur J Med Chem, 2014) come the findings set out here.

The target in assay [1] is T1, Prolyl endopeptidase FAP (Homo sapiens, UniProt Q12884).
T1 sequence (Q12884 whole entry): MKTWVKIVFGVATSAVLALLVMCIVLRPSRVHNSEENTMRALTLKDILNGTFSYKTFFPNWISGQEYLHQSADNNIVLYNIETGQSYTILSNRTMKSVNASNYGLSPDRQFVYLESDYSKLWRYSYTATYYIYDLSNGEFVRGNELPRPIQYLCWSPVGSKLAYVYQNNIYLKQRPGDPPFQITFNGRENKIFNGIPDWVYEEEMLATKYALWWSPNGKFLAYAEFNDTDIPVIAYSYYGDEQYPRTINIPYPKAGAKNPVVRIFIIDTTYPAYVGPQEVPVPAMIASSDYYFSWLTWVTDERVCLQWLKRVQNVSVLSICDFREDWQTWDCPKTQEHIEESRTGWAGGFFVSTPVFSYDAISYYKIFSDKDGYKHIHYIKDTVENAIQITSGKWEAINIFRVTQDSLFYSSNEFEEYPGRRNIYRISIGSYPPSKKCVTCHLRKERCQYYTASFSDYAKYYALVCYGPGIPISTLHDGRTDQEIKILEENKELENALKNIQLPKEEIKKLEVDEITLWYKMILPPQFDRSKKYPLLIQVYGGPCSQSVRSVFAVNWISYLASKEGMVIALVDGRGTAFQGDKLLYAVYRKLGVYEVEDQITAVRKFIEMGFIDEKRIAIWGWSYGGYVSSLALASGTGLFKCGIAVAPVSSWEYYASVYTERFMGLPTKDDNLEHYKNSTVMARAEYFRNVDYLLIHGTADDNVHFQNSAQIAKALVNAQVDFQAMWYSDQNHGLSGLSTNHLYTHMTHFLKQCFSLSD
Put plainly: Inhibition of FAP (unknown origin) expressed in baculovirus expression system using Nle-Pro-AMC as substrate by continuous fluorometric assay.

The target of assay [2] is Dipeptidyl peptidase 2 (Homo sapiens, UniProt Q9UHL4). Put plainly: Inhibition of DPP7 (unknown origin) expressed in baculovirus expression system using Nle-Pro-AMC as substrate by continuous fluorometric assay.
For assay [3], the target named is Dipeptidyl peptidase 4 (Homo sapiens, UniProt P27487). Put plainly: Inhibition of human recombinant DPP4 expressed in baculovirus expression system using Ala-Pro-AMC as substrate by continuous fluorometric assay.
Sequence of Dipeptidyl peptidase 4 (P27487 whole entry): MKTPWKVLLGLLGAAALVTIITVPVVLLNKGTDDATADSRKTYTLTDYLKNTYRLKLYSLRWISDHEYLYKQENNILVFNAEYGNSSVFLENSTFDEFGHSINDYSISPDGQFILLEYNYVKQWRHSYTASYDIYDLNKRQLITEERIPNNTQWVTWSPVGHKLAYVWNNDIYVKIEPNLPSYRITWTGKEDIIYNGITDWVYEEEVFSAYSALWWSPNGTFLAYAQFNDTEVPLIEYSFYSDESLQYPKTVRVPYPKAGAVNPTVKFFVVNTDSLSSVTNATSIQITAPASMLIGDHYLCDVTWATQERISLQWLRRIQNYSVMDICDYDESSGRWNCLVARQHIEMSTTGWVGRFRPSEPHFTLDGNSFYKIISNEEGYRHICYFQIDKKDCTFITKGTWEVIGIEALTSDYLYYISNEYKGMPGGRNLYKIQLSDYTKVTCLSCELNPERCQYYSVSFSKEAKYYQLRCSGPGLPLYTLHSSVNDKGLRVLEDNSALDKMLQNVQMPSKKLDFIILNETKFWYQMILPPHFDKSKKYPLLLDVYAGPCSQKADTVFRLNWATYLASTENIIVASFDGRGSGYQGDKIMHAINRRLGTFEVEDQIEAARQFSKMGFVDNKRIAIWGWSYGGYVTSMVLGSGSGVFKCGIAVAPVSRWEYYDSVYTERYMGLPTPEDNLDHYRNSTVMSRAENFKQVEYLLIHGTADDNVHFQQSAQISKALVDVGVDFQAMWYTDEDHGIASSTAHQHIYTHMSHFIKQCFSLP
Assay [4] deals with Dipeptidyl peptidase 9 (Homo sapiens, UniProt Q86TI2). Put plainly: Inhibition of DPP9 (unknown origin) expressed in baculovirus expression system using Ala-Pro-AMC as substrate by continuous fluorometric assay.
Sequence of Dipeptidyl peptidase 9 (Q86TI2 whole entry): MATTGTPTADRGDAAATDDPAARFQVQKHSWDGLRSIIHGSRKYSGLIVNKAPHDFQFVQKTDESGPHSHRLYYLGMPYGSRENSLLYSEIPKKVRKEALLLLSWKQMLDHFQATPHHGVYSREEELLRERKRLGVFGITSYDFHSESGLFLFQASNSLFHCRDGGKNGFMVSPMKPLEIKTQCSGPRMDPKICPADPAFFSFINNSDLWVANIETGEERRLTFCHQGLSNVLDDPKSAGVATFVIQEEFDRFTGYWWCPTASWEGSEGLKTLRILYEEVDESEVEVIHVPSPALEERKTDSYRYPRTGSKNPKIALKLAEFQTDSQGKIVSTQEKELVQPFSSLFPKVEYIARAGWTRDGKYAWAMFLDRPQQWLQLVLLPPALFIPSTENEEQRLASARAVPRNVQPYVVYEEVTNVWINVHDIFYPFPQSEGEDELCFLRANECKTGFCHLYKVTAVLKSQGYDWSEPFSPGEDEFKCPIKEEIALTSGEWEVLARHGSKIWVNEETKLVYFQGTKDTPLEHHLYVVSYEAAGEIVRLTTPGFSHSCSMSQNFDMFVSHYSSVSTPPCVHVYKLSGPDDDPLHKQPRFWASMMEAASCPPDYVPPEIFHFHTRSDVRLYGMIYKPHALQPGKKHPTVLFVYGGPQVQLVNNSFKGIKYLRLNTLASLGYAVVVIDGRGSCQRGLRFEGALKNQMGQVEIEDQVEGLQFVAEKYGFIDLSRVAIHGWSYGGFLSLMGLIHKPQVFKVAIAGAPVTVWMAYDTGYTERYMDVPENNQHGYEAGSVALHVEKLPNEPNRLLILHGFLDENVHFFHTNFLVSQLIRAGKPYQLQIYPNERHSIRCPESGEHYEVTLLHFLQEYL

For `N#C[C@@H]1C[C@@H]2CCC[C@@H]2N1C(=O)C[C@H](N)Cc1ccc(F)cc1`, the IC50 in assay [1] (read-out: IC50) was found to be 154 µM. For the compound `N#C[C@@H]1C[C@H](F)CN1C(=O)C[C@H](N)Cc1ccc(F)cc1`, the concentration for half-maximal inhibition (IC50) in assay [2] (read-out: IC50) is 193 µM. For the compound `Cc1ccccc1C[C@@H](N)CC(=O)N1C[C@@H](F)C[C@H]1C#N`, the IC50 entry in assay [2] is reported as “Not Active”. Turning to `COc1ccc(C[C@@H](N)CC(=O)N2[C@H](C#N)C[C@@H]3CCC[C@@H]32)cc1`, the concentration for half-maximal inhibition (IC50) result in assay [3] is given as “Not Active”.

For `N#C[C@@H]1C[C@H](F)CN1C(=O)C[C@H](N)Cc1ccccc1`, the half-maximal inhibitory concentration (IC50) entry in assay [2] is recorded as “Not Active”. `N#C[C@@H]1C[C@H](F)CN1C(=O)C[C@H](N)Cc1ccc(Cl)c(Cl)c1` came in with an IC50 in assay [4] of 0.23 µM.

As for `N#C[C@@H]1C[C@@H]2CCC[C@@H]2N1C(=O)C[C@H](N)Cc1cccc(F)c1`, the IC50 entry in assay [1] and in assay [2] was “Not Active” each time.

As a reminder, the IC50 is the point on the concentration scale where inhibition reaches its midpoint.
